Values of other authors as cited in publication PMC5559489 (Scientific Reports, 2017).

Assays:
[1] = tested on: A(H1N1)pdm2009 clinical isolates with H275Y mutation; settings: cited from earlier work
[2] = tested on: A(H1N1)pdm09 isolates containing NA H275Y and I223R; settings: cited from earlier work

In the case of `CCOC(=O)C1=C[C@@H](OC(CC)CC)[C@H](NC(C)=O)[C@@H](N)C1` [oseltamivir, Oseltamivir], the “decrease of sensitivity compared to wild-type” value [1] is given as 1466 fold and the “decreased susceptibility to oseltamivir” value [2] is given as 246 fold.
